Experimental data as given in ChEMBL document CHEMBL1158868, “Bioactive and other sesquiterpenes from Chiloscyphus rivularis” (J Nat Prod, 1997).
Converted amounts (≈) assume the structure as drawn. The source made the active and inactive calls. No cut-off for these calls is given here.

Assays:
[1] = tested on: Saccharomyces cerevisiae; assay: Antimicrobial activity against rad52 gene deficient and DNA repair deficient yeast RS322; assay type: functional
[2] = tested on: A549; assay: Cytotoxicity against human A549 cells; assay type: functional, cell-based
[3] = tested on: Saccharomyces cerevisiae; assay: Antimicrobial activity against rad52.top1 gene deficient yeast RS321; assay type: functional
[4] = Cytotoxicity against human NCI60 cells; assay type: functional
[5] = tested on: Saccharomyces cerevisiae; assay: Antimicrobial activity against rad gene expressing and DNA repair proficient wild type yeast RS188N; assay type: functional

C[C@H]1CCC=C2CC[C@H](C(=O)C(O)(CO)CO)[C@@]21C
Activity [1]: inactive

C[C@H]1CC[C@@H](O)[C@]23CC[C@H](C(=O)O2)[C@]13C [RIVULALACTONE]
IC12 [1]: > 500 µg/mL

C=C(C)C(=O)[C@H]1CCC2=CC(=O)C[C@H](C)[C@]21C
IC12 [1]: > 500 µg/mL

C[C@H]1CCC=C2CC[C@H](C(=O)C3(CO)CO3)[C@@]21C (stereo partly specified)
Activity [1]: inactive

C=C(CO)C(=O)[C@H]1CCC2=CCC[C@H](C)[C@]21C
IC50 [2]: 2 µg/mL (≈ 8.53 µM)
IC12 [3]: > 1000 µg/mL
IC12 [1]: 75 µg/mL
GI50 [4]: 10 µM
IC12 [5]: 88 µg/mL

C=C(C)C(=O)[C@H]1CC(=O)C2=CC(=O)C[C@H](C)[C@]21C
IC12 [1]: > 500 µg/mL

C=C(CO)C(=O)[C@H]1CCC2=CC(=O)C[C@H](C)[C@]21C
IC12 [1]: > 500 µg/mL
